target: NACHT, LRR and PYD domains-containing protein 3 (Homo sapiens, UniProt Q96P20); test: Evaluation of NLRP3 Inflammasome Inhibitory Activity Assay
Description: The NLRP3 inflammasome inhibitory activity of test compounds were evaluated CM the basis of the inhibitory activity of the IL-1β, production in THP1-Null cells (Product Number: thp-null, InvivoGen). […] A solution containing a test compound (20 μL/well) was added to test compound-setting wells. […] The supernatant of the culture was cryonically stored (set at −20° C.) until measurement of IL-1β.

Chain of NACHT, LRR and PYD domains-containing protein 3 (Q96P20 whole entry, the tested form may be a part): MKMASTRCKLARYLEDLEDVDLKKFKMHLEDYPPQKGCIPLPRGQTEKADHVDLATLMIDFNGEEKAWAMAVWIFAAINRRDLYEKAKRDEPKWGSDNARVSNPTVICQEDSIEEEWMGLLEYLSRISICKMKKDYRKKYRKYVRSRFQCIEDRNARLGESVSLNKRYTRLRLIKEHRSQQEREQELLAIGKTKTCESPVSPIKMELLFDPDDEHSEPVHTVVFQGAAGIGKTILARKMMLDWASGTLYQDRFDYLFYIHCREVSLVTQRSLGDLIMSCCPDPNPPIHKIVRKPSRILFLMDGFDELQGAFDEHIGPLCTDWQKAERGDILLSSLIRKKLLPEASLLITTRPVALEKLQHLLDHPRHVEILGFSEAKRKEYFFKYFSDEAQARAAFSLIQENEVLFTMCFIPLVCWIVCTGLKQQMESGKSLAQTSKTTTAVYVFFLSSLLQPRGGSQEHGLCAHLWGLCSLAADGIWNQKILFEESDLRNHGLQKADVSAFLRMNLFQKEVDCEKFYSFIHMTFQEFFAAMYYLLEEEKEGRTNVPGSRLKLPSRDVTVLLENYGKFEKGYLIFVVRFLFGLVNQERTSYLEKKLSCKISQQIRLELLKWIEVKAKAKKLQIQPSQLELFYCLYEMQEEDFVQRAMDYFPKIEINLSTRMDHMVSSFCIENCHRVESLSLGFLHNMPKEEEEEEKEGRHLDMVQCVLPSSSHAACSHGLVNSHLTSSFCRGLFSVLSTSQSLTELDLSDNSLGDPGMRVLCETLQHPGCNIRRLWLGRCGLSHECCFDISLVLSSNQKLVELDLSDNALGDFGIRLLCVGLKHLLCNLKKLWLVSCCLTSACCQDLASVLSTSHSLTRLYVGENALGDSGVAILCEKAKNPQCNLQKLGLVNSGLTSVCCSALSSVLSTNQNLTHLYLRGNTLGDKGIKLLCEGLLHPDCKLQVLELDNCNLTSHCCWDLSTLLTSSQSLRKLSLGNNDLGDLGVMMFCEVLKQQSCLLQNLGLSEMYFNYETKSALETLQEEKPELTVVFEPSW

Compound	IC50
Cc1c(Nc2nc(C(=O)NS(=O)(=O)N(C)C)co2)cc(C(F)(F)F)cc1C(F)(F)F [US20230399319, Example 2-041]	340 nM
CC(C)c1cc(Nc2nc(C(=O)NS(=O)(=O)N3CCCOCC3)co2)n(C(C)C)n1 [US20230399319, Example 2-202]	2200 nM
Cc1ccc(C(F)(F)F)cc1Nc1nc(C(=O)NS(=O)(=O)N2CCC[C@H]2C(=O)N(C)C)co1 [US20230399319, Example 2-079]	280 nM
COCCC1(C#N)CCCN(S(=O)(=O)NC(=O)c2coc(Nc3cc(C(F)(F)F)ccc3C)n2)CC1 (stereo unspecified) [US20230399319, Example 2-250]	30 nM
CCOCC1CCN(S(=O)(=O)NC(=O)c2coc(Nc3cc(C(C)C)c(F)cc3C)n2)CCO1 (stereo unspecified) [US20230399319, Example 2-337]	13 nM
CCOCC1CCN(S(=O)(=O)NC(=O)c2coc(Nc3cc(C)c(F)cc3C(C)C)n2)CCO1 (stereo unspecified) [US20230399319, Example 2-335]	18 nM
CCCS(=O)(=O)C1CCCN(S(=O)(=O)NC(=O)c2coc(Nc3nc(C(F)(F)F)ccc3C(C)C)n2)CC1 (stereo unspecified) [US20230399319, Example 2-315]	85 nM
Cc1ccc(C(C)C)cc1Nc1nc(C(=O)NS(=O)(=O)N(C)Cc2ccccn2)co1 [US20230399319, Example 2-167]	48 nM
Cc1ccc(C(F)(F)F)cc1Nc1nc(C(=O)NS(=O)(=O)N2CCOCC(n3cccn3)C2)co1 (stereo unspecified) [US20230399319, Example 2-304]	59 nM
Cc1ccc(C(F)(F)F)cc1Nc1nc(C(=O)NS(=O)(=O)N2CCC(F)(F)C2)co1 [US20230399319, Example 2-021]	90 nM
Cc1ccc(C(F)(F)F)cc1Nc1nc(C(=O)NS(=O)(=O)N2CCCC2C)co1 (stereo unspecified) [US20230399319, Example 2-174]	55 nM
COCC1COCCN(S(=O)(=O)NC(=O)c2coc(Nc3cc(C(F)(F)F)ccc3C)n2)C1 (stereo unspecified) [US20230399319, Example 2-151]	64 nM
Cc1ccc(C(F)(F)F)cc1Nc1nc(C(=O)NS(=O)(=O)N(C(C)C)C(C)C)co1 [US20230399319, Example 2-051]	44 nM
Cc1ccc(C(F)(F)F)cc1Nc1nc(C(=O)NS(=O)(=O)N2CCN(S(=O)(=O)N(C)C)CC2)co1 [US20230399319, Example 2-266]	50 nM
Cc1ccc(C(F)(F)F)cc1Nc1nc(C(=O)NS(=O)(=O)N(C)Cc2cnccn2)co1 [US20230399319, Example 2-236]	100 nM
Cc1ccc(C(F)(F)F)cc1Nc1nc(C(=O)NS(=O)(=O)N2CCN(c3ccccc3)CC2)co1 [US20230399319, Example 2-274]	180 nM
CCCOCC1CCN(S(=O)(=O)NC(=O)c2coc(Nc3cc(C)ccc3C)n2)CCO1 (stereo unspecified) [US20230399319, Example 2-323]	35 nM
COC[C@H]1CCN(S(=O)(=O)NC(=O)c2coc(Nc3cc(C)c(F)cc3C)n2)CCO1 [US20230399319, Example 3-001]	72 nM
CC(C)c1ccc(C(F)(F)F)cc1Nc1ncc(C(=O)NS(=O)(=O)N2CCCOCC2)o1 [US20230399319, Example 2-135]	44 nM
Cc1ccc(C(F)(F)F)cc1Nc1nc(C(=O)NS(=O)(=O)N2CCCC(=O)CC2)co1 [US20230399319, Example 2-149]	32 nM
Cc1cn(CC(F)(F)F)nc1Nc1nc(C(=O)NS(=O)(=O)N2CCCOCC2)co1 [US20230399319, Example 2-152]	6100 nM
CC(C)c1ccc(C(F)(F)F)cc1Nc1nc(C(=O)NS(=O)(=O)N(C)C)co1 [US20230399319, Example 2-025]	< 30 nM
COCC1CCN(S(=O)(=O)NC(=O)c2coc(Nc3cc(C(F)(F)F)ccc3C)n2)C1 (stereo unspecified) [US20230399319, Example 2-307]	69 nM

Compound	IC50
Cc1ccc(C(F)(F)F)cc1Nc1nc(C(=O)NS(=O)(=O)N(C)CC2CCCC2)co1 [US20230399319, Example 2-208]	89 nM
Cc1ccc(C(C)(C)C)cc1Nc1nc(C(=O)NS(=O)(=O)N(C)CCN(C)C)co1 [US20230399319, Example 2-132]	1900 nM
CCC(CC)n1cc(C)c(Nc2nc(C(=O)NS(=O)(=O)N3CCCOCC3)co2)n1 [US20230399319, Example 2-168]	9800 nM
CCCS(=O)(=O)C1CCCN(S(=O)(=O)NC(=O)c2coc(Nc3cc(C)ccc3C(C)C)n2)CC1 (stereo unspecified) [US20230399319, Example 2-311]	18 nM
COC(=O)CC1COCCN1S(=O)(=O)NC(=O)c1coc(Nc2c3c(c(Cl)c4c2CCC4)CCC3)n1 (racemic) [US20230399319, Example 73]	130 nM
Cc1cc(Nc2nc(C(=O)NS(=O)(=O)N3CCOC(COCC(C)(C)O)CC3)co2)c(C)cc1F (stereo unspecified) [US20230399319, Example 2-353]	16 nM
CC(C)c1nn(C(C)C)cc1Nc1nc(C(=O)NS(=O)(=O)N2CCCC(C#N)CC2)co1 (stereo unspecified) [US20230399319, Example 2-191]	350 nM
Cc1ccc(C(F)(F)F)cc1Nc1nc(C(=O)NS(=O)(=O)N(C)C2CC2)co1 [US20230399319, Example 2-165]	100 nM
CC(C)c1ccc(C(F)(F)F)cc1Nc1nc(C(=O)NS(=O)(=O)N2CCOCC2)co1 [US20230399319, Example 2-026]	< 30 nM
Cc1cn(C2CCCC2)nc1Nc1nc(C(=O)NS(=O)(=O)N2CCCOCC2)co1 [US20230399319, Example 2-153]	2300 nM
Cc1ccc(C(F)(F)F)cc1Nc1nc(C(=O)NS(=O)(=O)N(C)CC2CCCCC2)co1 [US20230399319, Example 2-206]	150 nM
Cc1cc(F)c(C(C)C)cc1Nc1nc(C(=O)NS(=O)(=O)N2CCCOCC2)co1 [US20230399319, Example 2-336]	10 nM
COC[C@@H]1CCCN1S(=O)(=O)NC(=O)c1coc(Nc2cc(C)ccc2C(C)C)n1 [US20230399319, Example 2-322]	270 nM
Cc1cccc(C)c1Nc1nc(C(=O)NS(=O)(=O)N2CCCOCC2)co1 [US20230399319, Example 2-115]	1300 nM
Cc1ccc(C)c(Nc2nc(C(=O)NS(=O)(=O)N3CCOC(COCC4CCC4)CC3)co2)c1 (stereo unspecified) [US20230399319, Example 2-342]	10 nM
Cc1ccc(C(F)(F)F)cc1Nc1nc(C(=O)NS(=O)(=O)N2CCCC(C#N)(C(=O)N(C)C)CC2)co1 (stereo unspecified) [US20230399319, Example 2-260]	41 nM
Cc1ccc(C(F)(F)F)cc1Nc1nc(C(=O)NS(=O)(=O)N2CCOCC(F)(F)C2)co1 [US20230399319, Example 2-190]	17 nM
Cc1cc(F)c(C(C)C)cc1Nc1nc(C(=O)NS(=O)(=O)N2CCOCC(O)C2)co1 (stereo unspecified) [US20230399319, Example 2-350]	15 nM
COC[C@@H]1CCCN1S(=O)(=O)NC(=O)c1coc(Nc2cc(C)ccc2C)n1 [US20230399319, Example 2-303]	140 nM
Cc1cc(Nc2nc(C(=O)NS(=O)(=O)N3CCOC(C(C)(C)O)CC3)co2)c(C)cc1F (stereo unspecified) [US20230399319, Example 3-002]	49 nM
COCCN(Cc1ccccc1)S(=O)(=O)NC(=O)c1coc(Nc2cc(C(F)(F)F)ccc2C)n1 [US20230399319, Example 2-268]	55 nM
Cc1ccc(C(F)(F)F)cc1Nc1nc(C(=O)NS(=O)(=O)N2CCC(C#N)CC2)co1 [US20230399319, Example 2-109]	38 nM
Cc1ccc(C(F)(F)F)cc1Nc1nc(C(=O)NS(=O)(=O)N2CCN(S(=O)(=O)C(C)C)CC2)co1 [US20230399319, Example 2-267]	88 nM
